In PubChem BioAssay AID1919014 (Molecular Pharmacology Branch, DTP, NCI, 2023):

System: NCI-H1341 complex spheroids, percent test/control
Assay: Anticancer human tumor NCI-H1341 cell line growth inhibition [AhR];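 further: spheroids exposed to agents for seven days before readout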
Conditions: for IC50: curve of first compound; for viability, T/C: stronger effect = lower value
Text: Multicellular complex tumor spheroid response to aryl hydrocarbon receptor antagonists in combination with a variety of drugs and investigational agents in selected tumor cell lines
The current study was undertaken to assess response to aryl hydrocarbon receptor antagonists in combination with standard-of-care drugs and investigational agents in solid tumor complex spheroid models. Complex spheroids include a stromal component modeled by human endothelial cells (HUVEC) and fibroblasts modeled by human mesenchymal stem cells (MSCs). The concentration ranges selected for each drug and investigational agent were based upon clinically achievable concentrations if the clinical Cmax of the agent was known.
Compounds. The drugs and investigational agents: BAY 2416964 (NSC825713), GNF351 (NSC835774), CH-223191 (NSC835775), CPI-455 (NSC825282), aza-TdCyd (NSC777586), decitabine (NSC127716), belinostat (NSC758774), entinostat (NSC756642), pevonedistat (NSC761192), tazemetostat (NSC777109), talazoparib (NSC765396), olaparib (NSC753686), selinexor (NSC780203), nedisertib (M3814, NSC802822), bortezomib (NSC756655), venetoclax (NSC766270), doxorubicin (NSC123127), elimusertib (BAY189344, NSC800525), ceralasertib (AZD6738, NSC777638), TAK-243 (NSC785004), alisertib (NSC759677), etoposide (NSC141540), topotecan (NSC609699), eribulin (NSC707389), gemcitabine (NSC613327), carboplatin (NSC241240), cisplatin (NSC119875), and SN-38 (NSC673596) were obtained from the National Cancer Institute (NCI) Developmental Therapeutics Program Chemical Repository (32). The FDA-approved anticancer drug set is available from the Developmental Therapeutics Program at https://dtp.cancer.gov/organization/dscb/obtaining/available plates.htm. […] The stock solutions were prepared in dimethyl sulfoxide (DMSO, Sigma-Aldrich, St. Louis, MO, cat. D2650), except for the platinum compounds which were prepared in saline (Quality Biological, Gaithersburg, MD, cat. 114-055-101), at 800-fold the tested concentration and stored at -70 degrees C prior to their use. All drugs and investigational agents were tested over a range starting from a high concentration at or near the clinical Cmax and decreasing in half-log increments. If the clinical Cmax for an agent had not been determined, the highest concentration tested was 10 microM (Table 1).
Cell Culture. All cells were maintained in an incubator at 37 degrees C and 5% CO2 with 95% humidity. The PDC lines were cultured according to standard operating procedures established by the NCI PDMR (https://pdmr.cancer.gov). Briefly, all PDCs were thawed and cultured in Matrigel-coated flasks prepared with a working solution of 1X Ham's F-12 nutrient mix, without supplementation (Invitrogen, Waltham, MA, cat. 11765054), 100 U/mL penicillin-streptomycin (Invitrogen, cat. 15140122), and 2.5% Matrigel (Corning Inc., Corning, NY, cat. 354248) for the first three passages. All PDCs were cultured in complete DMEM/F-12 media containing advanced DMEM/F-12 (Invitrogen, cat. 12634028), 4.9% defined fetal bovine serum, heat inactivated (HyClone Laboratories Inc., Logan, UT, cat. SH30070.03HI), 389 ng/mL hydrocortisone (Sigma-Aldrich, cat. H4001), 9.7 ng/mL human EGF recombinant protein (Invitrogen, cat. PHG0313), 23.4 microg/mL adenine (Sigma-Aldrich, cat. A2786), 97.3 U/mL penicillin-streptomycin (Invitrogen, cat. 15140122), 1.9 mM L-glutamine (Invitrogen, cat. 25030081), and 9.7 microM Y-27632 dihydrochloride (Tocris Bioscience, Bristol, United Kingdom, cat. 1254). The PDCs were cultured in complete DMEM/F12 media without 10 microM Y-27632 dihydrochloride for at least two passages prior to the screen. The established cell lines NCI-H1341 and […] were cultured in DMEM/F-12, HEPES (Invitrogen, cat. 11330032), 5% defined fetal bovine serum (HyClone Laboratories Inc., cat. SH30070.03), ITS premix universal culture supplement [insulin (5 microg/mL), transferrin (5 microg/mL), and selenious acid (5 ng/mL)] […]

[1] = second compound 0.1 µM, first compound 0.0316 µM
[2] = second compound 0.1 µM, first compound 0.1 µM
[3] = second compound 0.316 µM, first compound 0.0316 µM
[4] = second compound 0.316 µM, first compound 0.1 µM
[5] = second compound 1 µM, first compound 0.0316 µM
[6] = second compound 1 µM, first compound 0.1 µM
[7] = second compound 3.16 µM, first compound 0.0316 µM
[8] = second compound 3.16 µM, first compound 0.1 µM
[9] = second compound 10 µM, first compound 0.0316 µM
[10] = second compound 10 µM, first compound 0.1 µM
[11] = second compound 0.1 µM, first compound 0.316 µM
[12] = second compound 0.1 µM, first compound 1 µM
[13] = second compound 0.1 µM, first compound 3.16 µM
[14] = second compound 0.1 µM, first compound 10 µM
[15] = second compound 0.316 µM, first compound 0.316 µM
[16] = second compound 0.316 µM, first compound 1 µM
[17] = second compound 0.316 µM, first compound 3.16 µM
[18] = second compound 0.316 µM, first compound 10 µM
[19] = second compound 1 µM, first compound 0.316 µM
[20] = second compound 1 µM, first compound 1 µM
[21] = second compound 1 µM, first compound 3.16 µM
[22] = second compound 1 µM, first compound 10 µM
[23] = second compound 3.16 µM, first compound 0.316 µM
[24] = second compound 3.16 µM, first compound 1 µM
[25] = second compound 3.16 µM, first compound 3.16 µM
[26] = second compound 3.16 µM, first compound 10 µM
[27] = second compound 10 µM, first compound 0.316 µM
[28] = second compound 10 µM, first compound 1 µM
[29] = second compound 10 µM, first compound 3.16 µM
[30] = second compound 10 µM, first compound 10 µM

SMILES	IC50 (second compound 0.1 µM)	IC50 (second compound 0.316 µM)	IC50 (second compound 1 µM)	IC50 (second compound 3.16 µM)	IC50 (second compound 10 µM)	viability, T/C [1]	viability, T/C [2]	viability, T/C [3]	viability, T/C [4]	viability, T/C [5]	viability, T/C [6]	viability, T/C [7]	viability, T/C [8]	viability, T/C [9]	viability, T/C [10]	viability, T/C [11]	viability, T/C [12]	viability, T/C [13]	viability, T/C [14]	viability, T/C [15]	also measured
CC[C@@]1(O)C(=O)OCc2c1cc1n(c2=O)Cc2cc3c(CN(C)C)c(O)ccc3nc2-1 + CC(CO)NC(=O)c1cc(-c2ccc(Cl)cc2)nn(-c2cnn(C)c2)c1=O	0.0313 µM	0.0603 µM	0.0489 µM	0.0314 µM	0.0324 µM	50.3%	40.2%	58.3%	43.5%	58.8%	37.2%	49.5%	39.1%	48%	36.6%						viability, T/C (second compound 0.1 µM, first compound 0.000316 µM): 81.7%; viability, T/C (second compound 0.1 µM, first compound 0.001 µM): 85.1%; viability, T/C (second compound 0.1 µM, first compound 0.00316 µM): 103%; viability, T/C (second compound 0.1 µM, first compound 0.01 µM): 81.5%; viability, T/C (second compound 0.316 µM, first compound 0.000316 µM): 84.4%; viability, T/C (second compound 0.316 µM, first compound 0.001 µM): 66.2%; viability, T/C (second compound 0.316 µM, first compound 0.00316 µM): 84.6%; viability, T/C (second compound 0.316 µM, first compound 0.01 µM): 75.8%; viability, T/C (second compound 1 µM, first compound 0.000316 µM): 90.7%; viability, T/C (second compound 1 µM, first compound 0.001 µM): 84%; viability, T/C (second compound 1 µM, first compound 0.00316 µM): 65%; viability, T/C (second compound 1 µM, first compound 0.01 µM): 76.8%; viability, T/C (second compound 3.16 µM, first compound 0.000316 µM): 87.3%; viability, T/C (second compound 3.16 µM, first compound 0.001 µM): 74.8%; viability, T/C (second compound 3.16 µM, first compound 0.00316 µM): 79.2%; viability, T/C (second compound 3.16 µM, first compound 0.01 µM): 71.4%; viability, T/C (second compound 10 µM, first compound 0.000316 µM): 80.8%; viability, T/C (second compound 10 µM, first compound 0.001 µM): 77.8%; viability, T/C (second compound 10 µM, first compound 0.00316 µM): 69.2%; viability, T/C (second compound 10 µM, first compound 0.01 µM): 70.1%
COc1cc(C2c3cc4c(cc3C(OC3OC5COC(C)OC5C(O)C3O)C3COC(=O)C23)OCO4)cc(OC)c1O (stereo not given) + CC(CO)NC(=O)c1cc(-c2ccc(Cl)cc2)nn(-c2cnn(C)c2)c1=O	1.19 µM	0.673 µM	0.471 µM	0.294 µM	0.135 µM	85.9%	84.6%	72.4%	69.1%	74.2%	76.5%	74.6%	75.6%	63.5%	56.8%	65.2%	50.4%	44.8%	33.3%	55.5%	viability, T/C [16]: 44.8%; viability, T/C [17]: 39.4%; viability, T/C [18]: 28.7%; viability, T/C [19]: 54.4%; viability, T/C [20]: 44.3%; viability, T/C [21]: 41.3%; viability, T/C [22]: 36.1%; viability, T/C [23]: 48.2%; viability, T/C [24]: 40.2%; viability, T/C [25]: 41.1%; viability, T/C [26]: 28.6%; viability, T/C [27]: 40.6%; viability, T/C [28]: 33.4%; viability, T/C [29]: 33.2%; viability, T/C [30]: 27.3%
Nc1ccn(C2OC(CO)C(O)C2(F)F)c(=O)n1 (stereo not given) + CC(CO)NC(=O)c1cc(-c2ccc(Cl)cc2)nn(-c2cnn(C)c2)c1=O	< 0.0316 µM	< 0.0316 µM	< 0.0316 µM	< 0.0316 µM	< 0.0316 µM	28%	28%	30.9%	29.1%	28.6%	29.3%	30.1%	29.1%	33.6%	29.8%	27.7%	25.3%	27.3%	26.4%	25.6%	viability, T/C [16]: 26.9%; viability, T/C [17]: 24.4%; viability, T/C [18]: 24.1%; viability, T/C [19]: 30.5%; viability, T/C [20]: 23.8%; viability, T/C [21]: 26.1%; viability, T/C [22]: 25.9%; viability, T/C [23]: 30%; viability, T/C [24]: 24%; viability, T/C [25]: 25.3%; viability, T/C [26]: 27%; viability, T/C [27]: 27.4%; viability, T/C [28]: 24.3%; viability, T/C [29]: 22.3%; viability, T/C [30]: 21.4%
